We go through 4 molecules from PMC11256175 (Bioengineering & Translational Medicine, 2024).

Details of data set [1]: method as in earlier work. To be noted: mice and rats; cited from earlier work.
For data set [2] the following is noted: phosphate‐buffered saline [PBS], pH 7.4; cited from earlier work.
The nature of data set [3]: Solubility of EV‐P in phosphate buffer and dissolution medium. It counts as physicochemical.
A short description of data set [4]: Equilibrium solubility of EV‐P in injectable oily vehicles (HPLC). Format: physicochemical. To be noted: for solubility at 3 days: 25°C, stored over 3 days, mean ± SD (n = 3). On the procedure: […] […] […] […] The EV‐P concentration in the sample was analyzed using Waters HPLC system (Model 515 pump, Model 486 UV‐VIS detector, and Model 717 plus autosampler, Waters, Milford, MA, USA) equipped with a reversed‐phase C18 column (4.6 × 150 mm, 5 μm, Shiseido). The mobile phase for EV‐P analysis consisted of 2‐propanol and deionized distilled water at a volume ratio of 6:4. The flow rate of the mobile phase and detection wavelength were 1.0 mL/min and 253 nm, respectively, and the elution time of EV‐P was 5.3 min. The calibration curve was linear in the range of 1–100 μg/mL and the limit of detection (LOD) and limit of quantitation (LOQ) values were calculated as 0.5 μg/mL and 1.5 μg/mL, respectively.

Data set [5] is described as follows: Dispersibility of EV‐P particles in oily vehicles (visual). Format: physicochemical. To be noted: after 3 days storage at 25°C, EV‐P 9.0 mg/mL. On the procedure:
Pulverized EV‐P powder (5 mg as EV) was added to injectable oil vehicles (1 mL) in an Eppendorf tube. The mixture was then vortexed for 10 min using a multi‐vortex (Vortex Genie 2, Scientific Industries, Chicago, IL, USA) and then shaken for 3 h at 25°C in a shaking incubator (model BF‐60SIRL, Bio Free, Seoul, Korea). Then, the dispersibility of EV‐P particles in different oily vehicles was visually evaluated. […] The EV‐P concentration in the sample was analyzed using Waters HPLC system (Model 515 pump, Model 486 UV‐VIS detector, and Model 717 plus autosampler, Waters, Milford, MA, USA) equipped with a reversed‐phase C18 column (4.6 × 150 mm, 5 μm, Shiseido). The mobile phase for EV‐P analysis consisted of 2‐propanol and deionized distilled water at a volume ratio of 6:4. The flow rate of the mobile phase and detection wavelength were 1.0 mL/min and 253 nm, respectively, and the elution time of EV‐P was 5.3 min. The calibration curve was linear in the range of 1–100 μg/mL and the limit of detection (LOD) and limit of quantitation (LOQ) values were calculated as 0.5 μg/mL and 1.5 μg/mL, respectively.

On the set-up of data set [6]: method as in PMID 11672957. Particulars: after SC or IM injection in pigs; cited from earlier work.
Details of data set [7]: method as in PMID 27067365. Particulars: pretreatment and intermittent dosing of clodronate; cited from earlier work.

Each structure is given as a SMILES string. Converted amounts (≈) assume the structure as drawn. “Also recorded” adds a separate entry of the source. Like-named read-outs stand apart in the source and are kept apart here.

For the molecule `C=C1[C@H](CO)[C@@H](O)C[C@@H]1n1cnc2c(=O)[nH]c(N)nc21` [EV, entecavir], in data set [1], the “Oral doses with minimal acute toxicity” value was “up to 200 mg/kg”.
Take `C=C1[C@H](COC(=O)CCCCCCCCCCCCCCC)[C@@H](O)C[C@@H]1n1cnc2c(=O)[nH]c(N)nc21` [EV‐P, 2‐amino‐1,9‐dihydro‐9‐[(1S,3R,4S)‐4‐hydroxy‐3‐(hexadecanoyloxymethyl)‐2‐methylenecyclopentyl]‐6H‐purin‐6‐one]: the Aqueous solubility result in data set [2] was “approximately 1.1 μg/mL”. Moreover, the solubility in data set [3] (isopropyl alcohol and distilled water (5:5, v/v) mixture, read-out: Solubility in dissolution medium) is greater than 100 µg/mL; in data set [3] (phosphate buffer / aqueous media pH 7.4, read-out: Solubility in phosphate buffer (pH 7.4)), 1.1 µg/mL (≈ 2.13 µM). In data set [4] (OS designed using tricaprylin and Labrafac, EV‐P concentration of 9.0 mg/mL), the “EV‐P dissolved in OS” value was “less than 1.0 % (w/v)”. Also, the solubility at 3 days in data set [4] (in castor oil) came to 2100 µg/mL (≈ 4070 µM); in data set [4] (in peanut oil), 1900 µg/mL (≈ 3680 µM); in data set [4] (oil or lipid, thermodynamic from solid, in Labrafac PG) it was 110 ± 10 µg/mL (≈ 213 µM); in data set [4] (oil or lipid, thermodynamic from solid, in Miglyol 812), 620 ± 120 µg/mL (≈ 1200 µM); in data set [4] (oil or lipid, thermodynamic from solid, in castor oil) it was 2140 ± 70 µg/mL (≈ 4150 µM); in data set [4] (oil or lipid, thermodynamic from solid, in cotton seed oil) it was 980 ± 570 µg/mL (≈ 1900 µM). Besides, the solubility at 3 days was 5900 ± 50 µg/mL (≈ 11400 µM) in data set [4] (oil or lipid, thermodynamic from solid, in oleic acid); 1950 ± 180 µg/mL (≈ 3780 µM) in data set [4] (oil or lipid, thermodynamic from solid, in peanut oil); 800 ± 130 µg/mL (≈ 1550 µM) in data set [4] (oil or lipid, thermodynamic from solid, in soybean oil); 30 ± 10 µg/mL (≈ 58.2 µM) in data set [4] (oil or lipid, thermodynamic from solid, in tricaprylin). The Dispersibility result in data set [5] (in Labrafac PG) was “evenly dispersed”; in data set [5] (in Miglyol 812), “Aggregated”; in data set [5] (in castor oil) it was “Aggregated”; in data set [5] (in cotton seed oil), “Aggregated”; in data set [5] (in oleic acid), “Re‐dispersible”; in data set [5] (in peanut oil) it was “Aggregated”. Further, the Dispersibility entry in data set [5] (in soybean oil) is given as “Aggregated”; in data set [5] (in tricaprylin), “evenly dispersed; also recorded: Re‐dispersible”.
As to `CCCCCCCCCCCCCC(=O)OC(C)C` [isopropyl myristate], in data set [6], the “Elimination T 1/2 from injection site” value was “approximately 20 days”.
As to `Cc1nc2n(c(=O)c1CCN1CCC(c3noc4cc(F)ccc34)CC1)CCCC2O` (centres unmarked) [paliperidone], in data set [7], the “AUC after 1 day post‐dosing, times higher than IM injection with no treatment” value was “approximately 2.2 times” and the “C max, times higher than IM injection with no treatment” value was 1.5 times.
